Measurements reported in the supplement of paper PMC10331698.
± gives the standard deviation of the averaged measurements.

Tests used:
Test in all cases: level (log10 ratio to DMSO vehicle control); higher = higher biomarker level / cell amount than vehicle control
[1] = compound: O=S(=O)(F)C(F)(F)C(F)(F)C(F)(F)C(F)(F)C(F)(F)C(F)(F)C(F)(F)C(F)(F)F [Perfluorooctanesulfonyl fluoride]; details: in DMSO
Description: (§1)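 BioMAP Diversity Plus panel of 12 human primary cell co-culture systems (3C, 4H, LPS, SAg, BT, BF4T, BE3C, CASM3C, HDF3CGF, KF3CT, MyoF, Mphg). Compounds were added 1 h before stimulation and left for 24 h (MyoF 48 h; BT 72 h for soluble read-outs or 6 d for IgG). Biomarkers were read by ELISA, cytotoxicity by SRB, PBMC viability and proliferation by Alamar Blue. Each well value was divided by the mean of 8 DMSO control wells on the same plate and log10 transformed; duplicate blinded samples were tested at 4 concentrations.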

[2] = compound: NC(=O)C(F)(F)C(F)(F)C(F)(F)C(F)F; details: in DMSO
Description: as §1

[3] = compound: FC(F)(F)C(F)(F)C(F)(F)C(F)(F)C(F)(F)C(F)(F)CC1CO1 [3-(Perfluorohexyl)-1,2-epoxypropane]; details: in DMSO
Description: as §1

[4] = compound: O=C(O)C(F)(F)C(F)(F)C(F)(F)C(F)(F)C(F)(F)C(F)(F)C(F)(F)C(F)(F)C(F)(F)C(F)F [11-H-Perfluoroundecanoic acid]; details: in DMSO
Description: as §1

[5] = compound: FC(F)(F)C(F)(F)C(F)(F)CI [Heptafluorobutyl iodide]; details: in DMSO
Description: as §1

[6] = compound: O=C(O)C=CC(F)(C(F)(F)F)C(F)(F)F [3-(Perfluoroisopropyl)-2-propenoic acid]; details: in DMSO
Description: as §1

[7] = compound: NC(=O)C(F)(F)C(F)(F)C(F)(F)C(F)(F)C(N)=O [Octafluoroadipamide]; details: in DMSO
Description: as §1

[8] = compound: NS(=O)(=O)C(F)(F)C(F)(F)C(F)(F)C(F)(F)C(F)(F)C(F)(F)F [Perfluorohexanesulfonamide]; details: in DMSO
Description: as §1

[9] = compound: O=S(=O)(O)C(F)(F)C(F)(F)C(F)(F)C(F)(F)C(F)(F)C(F)(F)C(F)(F)C(F)(F)C(F)(F)C(F)(F)F [Sodium perfluorodecanesulfonate]; details: in DMSO
Description: as §1

[10] = compound: FC(F)(F)C(F)(F)CNCC(F)(F)C(F)(F)F [Bis(1H,1H-perfluoropropyl)amine]; details: in DMSO
Description: as §1

[11] = compound: COC(=O)C(F)(F)C(F)(F)OC(F)(C(F)(F)F)C(F)(F)OC(F)=C(F)F [Methyl perfluoro(3-(1-ethenyloxypropan-2-yloxy)propanoate)]; details: in DMSO
Description: as §1

[12] = compound: FC(F)(F)C(F)(F)C(F)(F)C(F)(F)C(F)(F)C(F)(F)C(F)(F)I [1-Iodopentadecafluoroheptane]; details: in DMSO
Description: as §1

[13] = compound: FC(F)(F)C(F)(F)C(F)(F)CC1CO1 [1H,1H-Heptafluorobutyl epoxide]; details: in DMSO
Description: as §1

[14] = compound: OCC(F)(F)C(F)(F)C(F)(F)CO [Hexafluoroamylene glycol]; details: in DMSO
Description: as §1

[15] = compound: O=S(=O)(O)CCC(F)(F)C(F)(F)C(F)(F)C(F)(F)C(F)(F)C(F)(F)F [6:2 Fluorotelomer sulfonic acid]; details: in DMSO
Description: as §1

[16] = compound: C=CC(=O)OCC(F)(F)C(F)(F)C(F)(F)COC(=O)C=C [1H,1H,5H,5H-Perfluoro-1,5-pentanediol diacrylate]; details: 6700 nM; in DMSO
Description: as §1

[17] = compound: C=C(C)C(=O)OCCC(F)(F)C(F)(F)C(F)(F)C(F)(F)C(F)(F)C(F)(F)F [6:2 Fluorotelomer methacrylate]; details: in DMSO
Description: as §1

[18] = compound: NC(=O)C(F)(F)C(F)(F)C(F)(F)C(F)(F)F [Nonafluoropentanamide]; details: in DMSO
Description: as §1

[19] = compound: O=S(=O)(Cl)C(F)(F)C(F)(F)C(F)(F)C(F)(F)C(F)(F)C(F)(F)C(F)(F)C(F)(F)F [Perfluoro-1-octanesulfonyl chloride]; details: in DMSO
Description: as §1

## BT:sIL-6
[1]; 6700 nM
  level (log10): -0.055 ± 0.037
[1]; 20000 nM
  level (log10): -0.021 ± 0.047
[1]; 60000 nM
  level (log10): -0.037 ± 0.048
[2]; 6700 nM
  level (log10): 0.0315 ± 0.074
[2]; 20000 nM
  level (log10): -0.0335 ± 0.023
[2]; 60000 nM
  level (log10): -0.0795 ± 0.11
[3]; 6700 nM
  level (log10): 0.007 ± 0.079
[3]; 20000 nM
  level (log10): 0.014 ± 0.025
[3]; 60000 nM
  level (log10): -0.019 ± 0.02
[4]; 6700 nM
  level (log10): -0.033 ± 0.034
[4]; 20000 nM
  level (log10): -0.0465 ± 0.046
[5]; 6700 nM
  level (log10): 0.0525 ± 0.0092
[5]; 20000 nM
  level (log10): 0.0485 ± 0.0035
[5]; 60000 nM
  level (log10): 0.003 ± 0.014
[6]; 6700 nM
  level (log10): 0.032 ± 0.089
[6]; 20000 nM
  level (log10): -0.0455 ± 0.056
[6]; 60000 nM
  level (log10): -0.025 ± 0.03
[7]; 6700 nM
  level (log10): 0.0215 ± 0.037
[7]; 20000 nM
  level (log10): 0.024 ± 0.0057
[7]; 60000 nM
  level (log10): 0.0065 ± 0.016
[8]; 6700 nM
  level (log10): 0.013 ± 0.09
[8]; 20000 nM
  level (log10): -0.0025 ± 0.061
[8]; 60000 nM
  level (log10): -0.0455 ± 0.037
[9]; 1500 nM
  level (log10): 0 ± 0.031
[9]; 4400 nM
  level (log10): -0.0045 ± 0.026
[9]; 13000 nM
  level (log10): -0.036 ± 0.1
[9]; 40000 nM
  level (log10): -0.0235 ± 0.05
[10]; 6700 nM
  level (log10): 0.0285 ± 0.0064
[10]; 20000 nM
  level (log10): 0.02 ± 0.013
[10]; 60000 nM
  level (log10): 0.0245 ± 0.011
[11]; 6700 nM
  level (log10): 0.016 ± 0.024
[11]; 20000 nM
  level (log10): 0.0175 ± 0.047
[12]; 6700 nM
  level (log10): -0.0825 ± 0.0078
[12]; 20000 nM
  level (log10): 0.024 ± 0.044
[13]; 6700 nM
  level (log10): 0.002 ± 0.0014
[13]; 20000 nM
  level (log10): -0.023 ± 0.042
[13]; 60000 nM
  level (log10): -0.0725 ± 0.071
[14]; 6700 nM
  level (log10): 0.0575 ± 0.0078
[14]; 20000 nM
  level (log10): 0.015 ± 0.031
[14]; 60000 nM
  level (log10): 0.014 ± 0.021
[15]; 6700 nM
  level (log10): 0.0255 ± 0.039
[15]; 20000 nM
  level (log10): 0.0375 ± 0.016
[15]; 60000 nM
  level (log10): 0.003 ± 0.052
[16]
  level (log10): -0.692 ± 0.031
[17]; 6700 nM
  level (log10): 0.017 ± 0.014
[17]; 20000 nM
  level (log10): 0.059 ± 0.017
[17]; 60000 nM
  level (log10): -0.004 ± 0.089
[18]; 6700 nM
  level (log10): -0.0015 ± 0.039
[18]; 20000 nM
  level (log10): -0.0035 ± 0.036
[18]; 60000 nM
  level (log10): -0.0665 ± 0.03
[19]; 6700 nM
  level (log10): 0.0135 ± 0.016
[19]; 20000 nM
  level (log10): 0.043 ± 0.025
[19]; 60000 nM
  level (log10): 0.0195 ± 0.033

## BT:sIL-17F
[1]; 6700 nM
  level (log10): -0.0145 ± 0.032
[1]; 20000 nM
  level (log10): -0.0345 ± 0.079
[1]; 60000 nM
  level (log10): 0.035 ± 0.12
[2]; 6700 nM
  level (log10): 0.0335 ± 0.019
[2]; 20000 nM
  level (log10): -0.0275 ± 0.015
[2]; 60000 nM
  level (log10): -0.018 ± 0.023
[3]; 6700 nM
  level (log10): -0.051 ± 0.15
[3]; 20000 nM
  level (log10): -0.012 ± 0.096
[3]; 60000 nM
  level (log10): -0.0315 ± 0.079
[4]; 6700 nM
  level (log10): 0.0115 ± 0.0092
[4]; 20000 nM
  level (log10): -0.0225 ± 0.049
[5]; 6700 nM
  level (log10): 0.033 ± 0.078
[5]; 20000 nM
  level (log10): 0.031 ± 0.016
[5]; 60000 nM
  level (log10): 0.029 ± 0.033
[6]; 6700 nM
  level (log10): -0.088 ± 0.081
[6]; 20000 nM
  level (log10): -0.014 ± 0.054
[6]; 60000 nM
  level (log10): 0.0025 ± 0.043
[7]; 6700 nM
  level (log10): 0.0465 ± 0.057
[7]; 20000 nM
  level (log10): 0.073 ± 0.05
[7]; 60000 nM
  level (log10): 0.06 ± 0.082
[8]; 6700 nM
  level (log10): -0.0125 ± 0.11
[8]; 20000 nM
  level (log10): 0.054 ± 0.041
[8]; 60000 nM
  level (log10): -0.13 ± 0.027
[9]; 1500 nM
  level (log10): -0.025 ± 0.083
[9]; 4400 nM
  level (log10): 0.0315 ± 0.1
[9]; 13000 nM
  level (log10): 0.0615 ± 0.19
[9]; 40000 nM
  level (log10): 0.025 ± 0.086
[10]; 6700 nM
  level (log10): -0.088 ± 0.042
[10]; 20000 nM
  level (log10): -0.0175 ± 0.076
[10]; 60000 nM
  level (log10): 0.0375 ± 0.0064
[11]; 6700 nM
  level (log10): -0.027 ± 0.018
[11]; 20000 nM
  level (log10): -0.064 ± 0.12
[12]; 6700 nM
  level (log10): -0.0435 ± 0.049
[12]; 20000 nM
  level (log10): -0.0545 ± 0.16
[13]; 6700 nM
  level (log10): 0.0235 ± 0.015
[13]; 20000 nM
  level (log10): -0.0505 ± 0.063
[13]; 60000 nM
  level (log10): 0.0025 ± 0.1
[14]; 6700 nM
  level (log10): 0.0185 ± 0.069
[14]; 20000 nM
  level (log10): 0.028 ± 0.041
[14]; 60000 nM
  level (log10): 0.05 ± 0.033
[15]; 6700 nM
  level (log10): 0.0005 ± 0.064
[15]; 20000 nM
  level (log10): 0.0725 ± 0.012
[15]; 60000 nM
  level (log10): 0.0155 ± 0.011
[16]
  level (log10): -1 ± 0.04
[17]; 6700 nM
  level (log10): -0.0095 ± 0.032
[17]; 20000 nM
  level (log10): -0.023 ± 0.02
[17]; 60000 nM
  level (log10): -0.046 ± 0.014
[18]; 6700 nM
  level (log10): -0.0305 ± 0.12
[18]; 20000 nM
  level (log10): -0.0695 ± 0.14
[18]; 60000 nM
  level (log10): -0.101 ± 0.15
[19]; 6700 nM
  level (log10): 0.062 ± 0.054
[19]; 20000 nM
  level (log10): 0.0385 ± 0.0035
[19]; 60000 nM
  level (log10): 0.0705 ± 0.012
